Legend:
Test in all cases: biochemical
Parameters in all cases: DiscoverX KINOMEscan scanMAX competition binding panel, single concentration, percent of control; remaining binding: dose or concentration left out as unconfirmed
Details in all cases: KINOMEscan binding, percent of control; read-out: Table S4_SCANMAX REPORT - related to Fig. 1 / Percent Control
[1] = target: T1, ABL1-phosphorylated (Homo sapiens, UniProt P00519)
T1 construct: phosphorylated

[2] = target: ACVR1 (Homo sapiens, UniProt Q04771)
[3] = target: T2, AMPK-alpha1 (Homo sapiens, UniProt Q13131)
T2 construct: gene PRKAA1
T2 sequence (Q13131 whole entry): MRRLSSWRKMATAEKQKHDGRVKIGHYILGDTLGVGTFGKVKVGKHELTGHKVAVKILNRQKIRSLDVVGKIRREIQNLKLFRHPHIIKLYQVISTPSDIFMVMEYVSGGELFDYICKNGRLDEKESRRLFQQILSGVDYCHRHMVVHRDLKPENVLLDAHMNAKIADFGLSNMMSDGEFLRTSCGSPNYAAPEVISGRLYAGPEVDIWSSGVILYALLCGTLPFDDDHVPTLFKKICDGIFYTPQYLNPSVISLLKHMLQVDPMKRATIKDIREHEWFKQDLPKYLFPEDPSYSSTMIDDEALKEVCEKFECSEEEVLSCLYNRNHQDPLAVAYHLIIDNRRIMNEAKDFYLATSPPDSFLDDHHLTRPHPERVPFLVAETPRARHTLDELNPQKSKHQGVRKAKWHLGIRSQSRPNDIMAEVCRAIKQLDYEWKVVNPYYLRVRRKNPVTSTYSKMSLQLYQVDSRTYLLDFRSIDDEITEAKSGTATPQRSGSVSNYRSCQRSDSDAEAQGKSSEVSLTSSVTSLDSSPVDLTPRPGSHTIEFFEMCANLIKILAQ

[4] = target: T3, CDK4-cyclinD3 (Homo sapiens, UniProt P11802)
T3 construct: cyclinD3
T3 sequence (P11802 whole entry): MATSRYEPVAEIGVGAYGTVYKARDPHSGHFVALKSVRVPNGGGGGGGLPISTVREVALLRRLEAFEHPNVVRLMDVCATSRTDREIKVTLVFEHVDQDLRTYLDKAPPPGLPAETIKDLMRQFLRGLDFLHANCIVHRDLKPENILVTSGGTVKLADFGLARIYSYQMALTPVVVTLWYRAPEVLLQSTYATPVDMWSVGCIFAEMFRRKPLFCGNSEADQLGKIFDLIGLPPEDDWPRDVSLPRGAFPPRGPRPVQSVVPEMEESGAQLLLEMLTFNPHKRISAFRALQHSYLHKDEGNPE
T3 sequence (P30281 whole entry partner): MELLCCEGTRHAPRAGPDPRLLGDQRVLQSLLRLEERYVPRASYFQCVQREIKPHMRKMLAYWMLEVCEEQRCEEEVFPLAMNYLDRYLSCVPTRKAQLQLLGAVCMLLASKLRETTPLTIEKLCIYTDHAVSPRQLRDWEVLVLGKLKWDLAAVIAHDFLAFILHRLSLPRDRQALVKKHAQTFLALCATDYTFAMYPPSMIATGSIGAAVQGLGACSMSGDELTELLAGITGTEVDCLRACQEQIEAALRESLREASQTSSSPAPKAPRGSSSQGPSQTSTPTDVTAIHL

[5] = target: CDK9 (Homo sapiens, UniProt P50750)
[6] = target: T4, DRAK2 (Homo sapiens, UniProt O94768)
T4 construct: gene STK17B
T4 sequence (O94768 whole entry): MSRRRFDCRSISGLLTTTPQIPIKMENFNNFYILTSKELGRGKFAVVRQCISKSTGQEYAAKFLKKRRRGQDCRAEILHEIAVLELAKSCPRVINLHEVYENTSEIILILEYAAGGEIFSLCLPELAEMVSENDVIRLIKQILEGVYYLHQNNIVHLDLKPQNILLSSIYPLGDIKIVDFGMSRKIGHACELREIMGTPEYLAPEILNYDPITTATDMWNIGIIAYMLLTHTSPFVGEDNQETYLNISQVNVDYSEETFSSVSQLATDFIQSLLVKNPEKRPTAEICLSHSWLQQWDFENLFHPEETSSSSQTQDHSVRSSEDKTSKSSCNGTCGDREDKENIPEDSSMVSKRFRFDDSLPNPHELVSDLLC

[7] = target: EGFR (Homo sapiens, UniProt P00533)
[8] = target: LIMK2 (Homo sapiens, UniProt P53671)
Sequence of LIMK2 (P53671 whole entry): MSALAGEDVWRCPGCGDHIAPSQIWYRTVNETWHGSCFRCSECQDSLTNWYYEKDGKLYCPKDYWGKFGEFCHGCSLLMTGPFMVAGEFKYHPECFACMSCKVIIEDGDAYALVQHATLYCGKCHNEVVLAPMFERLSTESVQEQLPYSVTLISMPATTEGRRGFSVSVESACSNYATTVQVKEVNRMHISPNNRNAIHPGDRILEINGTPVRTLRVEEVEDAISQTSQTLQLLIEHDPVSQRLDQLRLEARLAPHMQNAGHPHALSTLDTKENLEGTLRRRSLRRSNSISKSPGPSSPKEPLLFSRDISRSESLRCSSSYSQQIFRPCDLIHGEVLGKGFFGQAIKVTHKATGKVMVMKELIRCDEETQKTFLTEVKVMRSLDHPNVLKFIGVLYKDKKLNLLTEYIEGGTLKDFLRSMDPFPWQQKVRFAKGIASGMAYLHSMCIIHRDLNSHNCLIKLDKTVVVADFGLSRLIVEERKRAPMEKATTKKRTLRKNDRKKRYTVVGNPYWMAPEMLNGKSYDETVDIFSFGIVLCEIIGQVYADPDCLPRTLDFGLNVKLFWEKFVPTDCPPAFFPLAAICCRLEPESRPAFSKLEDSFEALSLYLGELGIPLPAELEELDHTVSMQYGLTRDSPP

[9] = target: MAPKAPK5 (Homo sapiens, UniProt Q8IW41)
[10] = target: NEK6 (Homo sapiens, UniProt Q9HC98)
Sequence of NEK6 (Q9HC98 whole entry): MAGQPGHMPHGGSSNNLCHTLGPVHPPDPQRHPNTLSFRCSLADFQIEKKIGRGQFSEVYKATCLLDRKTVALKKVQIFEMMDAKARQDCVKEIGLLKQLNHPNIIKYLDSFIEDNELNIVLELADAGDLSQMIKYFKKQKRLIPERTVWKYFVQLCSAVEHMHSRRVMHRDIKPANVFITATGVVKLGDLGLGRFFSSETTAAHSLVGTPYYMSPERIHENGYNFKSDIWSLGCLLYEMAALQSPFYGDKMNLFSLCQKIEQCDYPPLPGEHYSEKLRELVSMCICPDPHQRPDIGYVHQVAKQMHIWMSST

[11] = target: PIK3CA(Q546K) (Homo sapiens, UniProt P42336, Q546K)
[12] = target: PIM3 (Homo sapiens, UniProt Q86V86)
[13] = target: PKN2 (Homo sapiens, UniProt Q16513)
[14] = target: T5, PRKR (Homo sapiens, UniProt P19525)
T5 construct: gene EIF2AK2

[15] = target: T6, TAK1 (Homo sapiens, UniProt O43318)
T6 construct: gene MAP3K7

[16] = target: TTK (Homo sapiens, UniProt P33981)
[17] = target: T7, TYK2(JH2domain-pseudokinase) (Homo sapiens, UniProt P29597)
T7 construct: JH2domain-pseudokinase

[18] = target: WNK1 (Homo sapiens, UniProt Q9H4A3)
Sequence of WNK1 (Q9H4A3 whole entry): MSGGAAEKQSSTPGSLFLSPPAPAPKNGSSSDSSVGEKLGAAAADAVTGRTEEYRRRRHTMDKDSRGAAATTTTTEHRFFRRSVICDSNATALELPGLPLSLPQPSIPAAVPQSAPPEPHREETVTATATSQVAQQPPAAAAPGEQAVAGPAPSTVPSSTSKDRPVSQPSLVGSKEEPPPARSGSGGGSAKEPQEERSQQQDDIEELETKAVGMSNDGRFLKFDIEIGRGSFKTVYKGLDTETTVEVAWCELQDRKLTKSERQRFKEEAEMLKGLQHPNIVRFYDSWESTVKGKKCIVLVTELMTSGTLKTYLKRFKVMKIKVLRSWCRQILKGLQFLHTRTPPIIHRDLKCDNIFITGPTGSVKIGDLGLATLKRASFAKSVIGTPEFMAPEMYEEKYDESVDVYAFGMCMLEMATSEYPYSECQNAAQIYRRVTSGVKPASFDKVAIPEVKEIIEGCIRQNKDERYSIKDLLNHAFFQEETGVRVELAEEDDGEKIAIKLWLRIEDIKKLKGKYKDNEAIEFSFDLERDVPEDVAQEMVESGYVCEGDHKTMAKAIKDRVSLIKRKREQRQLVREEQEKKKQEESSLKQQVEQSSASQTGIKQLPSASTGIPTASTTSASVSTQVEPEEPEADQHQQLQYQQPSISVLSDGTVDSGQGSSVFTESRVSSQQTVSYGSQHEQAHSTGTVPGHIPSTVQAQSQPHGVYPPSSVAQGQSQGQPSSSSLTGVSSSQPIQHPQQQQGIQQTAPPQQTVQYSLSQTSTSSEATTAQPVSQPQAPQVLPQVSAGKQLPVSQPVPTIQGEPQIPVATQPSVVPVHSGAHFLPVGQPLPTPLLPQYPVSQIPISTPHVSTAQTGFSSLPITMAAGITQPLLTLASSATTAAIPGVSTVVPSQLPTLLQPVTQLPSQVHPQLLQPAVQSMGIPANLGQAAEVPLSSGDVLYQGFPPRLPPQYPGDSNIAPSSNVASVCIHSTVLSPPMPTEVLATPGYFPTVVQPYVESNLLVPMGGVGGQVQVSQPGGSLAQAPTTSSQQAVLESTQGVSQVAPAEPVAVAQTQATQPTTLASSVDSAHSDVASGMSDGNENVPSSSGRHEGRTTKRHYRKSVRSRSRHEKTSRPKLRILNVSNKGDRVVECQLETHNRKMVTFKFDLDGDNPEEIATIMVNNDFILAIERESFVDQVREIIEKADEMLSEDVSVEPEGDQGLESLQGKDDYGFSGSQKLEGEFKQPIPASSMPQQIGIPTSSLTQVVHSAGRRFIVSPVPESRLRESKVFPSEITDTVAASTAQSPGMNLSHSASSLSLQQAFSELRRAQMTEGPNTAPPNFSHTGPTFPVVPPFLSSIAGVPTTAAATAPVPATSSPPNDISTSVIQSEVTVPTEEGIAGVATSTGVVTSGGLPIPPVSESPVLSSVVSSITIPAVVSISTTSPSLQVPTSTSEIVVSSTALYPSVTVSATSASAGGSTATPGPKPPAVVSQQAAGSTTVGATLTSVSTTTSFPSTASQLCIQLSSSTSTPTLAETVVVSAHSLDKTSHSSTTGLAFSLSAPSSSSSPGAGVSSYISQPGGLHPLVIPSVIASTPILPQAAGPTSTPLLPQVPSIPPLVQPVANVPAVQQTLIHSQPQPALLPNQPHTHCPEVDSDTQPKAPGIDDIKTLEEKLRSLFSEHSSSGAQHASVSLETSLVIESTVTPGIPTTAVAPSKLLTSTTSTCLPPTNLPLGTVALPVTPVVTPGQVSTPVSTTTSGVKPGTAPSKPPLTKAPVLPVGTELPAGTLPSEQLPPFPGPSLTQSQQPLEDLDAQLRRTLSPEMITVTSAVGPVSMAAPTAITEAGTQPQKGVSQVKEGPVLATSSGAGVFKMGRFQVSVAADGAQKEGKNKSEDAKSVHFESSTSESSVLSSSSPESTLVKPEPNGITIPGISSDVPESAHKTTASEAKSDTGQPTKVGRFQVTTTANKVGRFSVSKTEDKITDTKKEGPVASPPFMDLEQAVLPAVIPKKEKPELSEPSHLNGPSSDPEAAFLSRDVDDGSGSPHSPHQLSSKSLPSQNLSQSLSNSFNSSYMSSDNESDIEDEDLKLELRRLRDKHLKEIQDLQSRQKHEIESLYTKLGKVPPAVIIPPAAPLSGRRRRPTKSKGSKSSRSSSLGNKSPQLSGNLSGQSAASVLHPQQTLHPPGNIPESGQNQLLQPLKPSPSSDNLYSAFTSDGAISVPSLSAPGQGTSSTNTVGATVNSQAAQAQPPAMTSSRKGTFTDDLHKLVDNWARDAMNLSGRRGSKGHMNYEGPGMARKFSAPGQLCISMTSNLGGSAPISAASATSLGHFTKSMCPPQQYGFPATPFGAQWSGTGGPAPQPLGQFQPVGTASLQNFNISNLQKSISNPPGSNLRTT

SMILES: c1ccc2c(c1)Sc1ccccc1N2CCN1CCOCC1 [J54]
- remaining binding [1]: 71%
- remaining binding [2]: 94%
- remaining binding [3]: 100%
- remaining binding [4]: 98%
- remaining binding [5]: 100%
- remaining binding [6]: 83%
- remaining binding [7]: 92%
- remaining binding [8]: 100%
- remaining binding [9]: 100%
- remaining binding [10]: 92%
- remaining binding [11]: 100%
- remaining binding [12]: 47%
- remaining binding [13]: 69%
- remaining binding [14]: 93%
- remaining binding [15]: 97%
- remaining binding [16]: 17%
- remaining binding [17]: 100%
- remaining binding [18]: 94%

— PMC7486443, “Generation of Phenothiazine with Potent Anti-TLK1 Activity for Prostate Cancer Therapy” (iScience, 2020)
